Legend:
Format in all cases: biochemical
cyclooxygenase-2 (COX-2) = target: T1, cyclooxygenase-2 (COX-2) (Homo sapiens, UniProt P35354); assay: isolated COX-2 activity assay ([…] AA, 12-HHT formation); […] residual activity at […]
T1 construct: gene PTGS2; recombinant human COX-2
T1 sequence (P35354 18-604): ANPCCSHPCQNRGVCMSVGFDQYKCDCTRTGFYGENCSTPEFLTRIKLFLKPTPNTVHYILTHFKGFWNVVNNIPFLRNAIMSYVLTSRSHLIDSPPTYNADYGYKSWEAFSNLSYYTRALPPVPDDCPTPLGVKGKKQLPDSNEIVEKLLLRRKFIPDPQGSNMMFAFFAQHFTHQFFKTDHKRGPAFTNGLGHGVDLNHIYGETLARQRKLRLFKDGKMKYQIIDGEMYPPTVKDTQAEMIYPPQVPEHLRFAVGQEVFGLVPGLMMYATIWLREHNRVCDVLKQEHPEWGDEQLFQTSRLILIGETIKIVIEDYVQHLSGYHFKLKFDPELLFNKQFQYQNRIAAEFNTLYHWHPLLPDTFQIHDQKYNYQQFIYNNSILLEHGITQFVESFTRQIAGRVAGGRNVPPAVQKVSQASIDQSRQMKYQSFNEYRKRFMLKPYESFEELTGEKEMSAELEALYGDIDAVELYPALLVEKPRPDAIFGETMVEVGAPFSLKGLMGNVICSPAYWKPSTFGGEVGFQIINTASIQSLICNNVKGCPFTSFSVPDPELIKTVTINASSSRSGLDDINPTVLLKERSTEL

cyclooxygenase-1 (COX-1) = target: T2, cyclooxygenase-1 (COX-1) (Ovis aries, UniProt P05979); assay: isolated COX-1 activity assay ([…] AA, 12-HHT formation); […] residual activity at […]
T2 construct: gene PTGS1; purified ovine COX-1
T2 sequence (P05979 25-600): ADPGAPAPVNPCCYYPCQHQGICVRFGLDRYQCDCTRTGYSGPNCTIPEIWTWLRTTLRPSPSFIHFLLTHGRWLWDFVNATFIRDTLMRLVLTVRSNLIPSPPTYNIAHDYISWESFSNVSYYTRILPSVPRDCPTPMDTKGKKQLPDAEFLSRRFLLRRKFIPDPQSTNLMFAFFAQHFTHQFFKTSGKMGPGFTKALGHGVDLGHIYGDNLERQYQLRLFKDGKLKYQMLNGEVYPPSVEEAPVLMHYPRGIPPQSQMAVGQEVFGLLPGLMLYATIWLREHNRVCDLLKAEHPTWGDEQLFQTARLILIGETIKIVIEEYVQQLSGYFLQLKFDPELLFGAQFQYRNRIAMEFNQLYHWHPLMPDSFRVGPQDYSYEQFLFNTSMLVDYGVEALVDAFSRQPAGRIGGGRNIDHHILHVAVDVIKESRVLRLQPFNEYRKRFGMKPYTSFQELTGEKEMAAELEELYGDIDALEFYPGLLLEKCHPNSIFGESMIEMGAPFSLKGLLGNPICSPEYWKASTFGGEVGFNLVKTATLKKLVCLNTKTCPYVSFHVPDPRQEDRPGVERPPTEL

5-lipoxygenase (5-LO) = target: T3, 5-lipoxygenase (5-LO) (Homo sapiens, UniProt P09917); assay: isolated 5-LO activity assay ([…] AA, products by RP-HPLC)
T3 construct: gene ALOX5; recombinant, expressed in E. coli BL21 (DE3) with pT3-5-LO, purified on ATP-agarose
T3 sequence (P09917 1-674): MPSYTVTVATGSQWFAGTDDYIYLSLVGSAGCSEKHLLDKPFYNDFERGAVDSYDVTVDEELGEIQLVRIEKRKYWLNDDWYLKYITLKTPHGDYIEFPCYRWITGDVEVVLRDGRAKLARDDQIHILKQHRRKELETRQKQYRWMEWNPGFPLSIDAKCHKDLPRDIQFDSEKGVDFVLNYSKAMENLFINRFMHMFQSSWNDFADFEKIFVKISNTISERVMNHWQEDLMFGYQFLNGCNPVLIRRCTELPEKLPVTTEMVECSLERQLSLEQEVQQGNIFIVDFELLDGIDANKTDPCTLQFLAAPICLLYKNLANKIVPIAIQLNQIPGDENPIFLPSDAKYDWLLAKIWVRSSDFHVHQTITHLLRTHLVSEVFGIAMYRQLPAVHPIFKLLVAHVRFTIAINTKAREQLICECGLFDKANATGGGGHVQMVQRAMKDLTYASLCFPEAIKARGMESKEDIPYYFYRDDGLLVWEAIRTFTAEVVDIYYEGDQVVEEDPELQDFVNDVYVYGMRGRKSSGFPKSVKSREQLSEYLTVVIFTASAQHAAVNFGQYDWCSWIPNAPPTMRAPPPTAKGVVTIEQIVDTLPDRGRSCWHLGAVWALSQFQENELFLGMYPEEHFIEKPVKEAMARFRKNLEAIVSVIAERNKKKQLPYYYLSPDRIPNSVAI

C[C@H]1COC2=C1C(=O)C(=O)c1c2ccc2c1CCCC2(C)C [CRY, cryptotanshinone]
IC50 (cyclooxygenase-2 (COX-2)): > 30 µM | IC50 (cyclooxygenase-1 (COX-1)): > 30 µM | IC50 (5-lipoxygenase (5-LO)): 7.1 µM
